Structures are written as SMILES.

The nature of the data set: Ocular tissue pharmacokinetics of dexamethasone after intravitreal injection (HPLC). To be noted: vitreous humor. The procedure:
Previously, a paracentesis in the anterior chamber was performed using a 30-gauge hypodermic needle with removal of aqueous humor, to avoid an intraocular pressure elevation.
Thirty female NZ albino rabbits were used for this study: fifteen for SCS group (50 µL-DEX/LAP suspension) and other fifteen for IVT group (100 µL).
After administration of DEX/LAP suspension (10 mg/mL, 1:10 w/w), the rabbits were sacrificed for sampling eye tissues and subsequent ocular PK studies. Three animals were used for each sampling time point at 1, 7, 28, 84 and 168 days. A rapid intravenous injection of sodium pentobarbital (30 mg/kg) through the ear vein was performed and immediately after euthanasia, ocular tissues were collected. Following eye enucleation, the globes were snap-frozen (-40°C) and specimens were obtained by eye dissection (vitreous, lens, sclera and chorio-retina compound). DEX concentrations in ocular tissues were determined using a simple and easily accessible method by HPLC-Mss, according to the methodology described by our group in a previous study.
The determination of DEX was carried out by HPLC-Mss method in a Waters 2695 system equipped with a Phenomenex Kinetex C18 column (75 mm × 4.6 mm × 2.6 µm) coupled to a Waters 2995 PDA detector. The mobile phase was acetonitrile/water (35:65 v/v) pumped at a flow rate of 0.2 mL/min at 35°C. Detection at 250 nm was used. The amount of DEX was calculated by a seven point calibration curve against 6-α-methylprednisolone as internal standard. Aliquots of the extraction medium (200 µL) were mixed with acetonitrile (2 mL) and 100 µL of a standard solution (20 ppm in acetonitrile). The solution was then vortexed for 1 min and sonicated for 5 min to ensure the complete mixing, and finally centrifuged at 3000 rpm for 5 min. The supernatant was collected and evaporated under vacuum, and then dissolved in 200 µL of acetonitrile, filtered through a 0.22 µm PTFE syringe filter and analyzed.
PK data were analyzed for the best fit and were consequently modelled according to compartmental models using Microsoft Excel's "PKSolver Add-in" (Albuquerque, NM, USA), in which equations describing concentration as a function of time are used. The following PK parameters were obtained: peak concentration (Cmax), time to peak concentration (Tmax), elimination half-life (T½).
To describe the time course-concentration after administration the following equation was used: Ctissue = C0 ∗e^(−Ke t) [formula] where C is the tissue concentration, C0 is the concentration at time to, Ke is the elimination rate constant which is derived from the elimination half-life of the drug (Ke= 0.693/T1/2).

Setting [1] is: 100 µL intravitreal administration.

Consider `C[C@@H]1C[C@H]2[C@@H]3CCC4=CC(=O)C=C[C@]4(C)[C@@]3(F)[C@@H](O)C[C@]2(C)[C@@]1(O)C(=O)CO` [DEX solution, Dexamethasone], for which, under setting [1], the “AUC0-∞” value was found to be 317.17 ng·days/g, the C0 is listed as 1737.71 ng/g, the Cl turned out to be 315.29 g/day and the Ke is 5.48 day⁻¹. Besides, the “clearance (CL)” value (intravitreal injection) was found to be 315.29 g/day.

Values taken from patent EP3851097A1, “CONTROLLED RELEASE FORMULATIONS” (Universidad De Zaragoza, priority 2020, dated 2021).
